Data on two substances can be found in US20110281802A1, “COMPOSITION FOR TREATMENT AND PREVENTION OF HAIR LOSS AND PREMATURE GRAYING OF HAIR” (Immudiagnostik AG, priority 2007, published 2011).

Where no end group is shown, it is not given here.

Common to all, as to type: cell-based
In one assay the test system is thymulin. The assay is described as follows: Thymulin staining of GH-treated hair follicles.
The subject of assay [1] is human anagen VI hair follicles. Nature of the assay: Melanogenesis, Fontana Masson staining measured by Image J, assay #1. The following applies: for Mean relative darkening of the groups (measured by image J), Mean: 9 days, dark=small index number, light=high index number. The procedure: (§1) Assay #1 Culture HF429: Hair follicles were grown in the wells of a microtiter plate (3 follicles per well) and treated for 9 days with culture medium and test substance as indicated in FIG. 1. Thereafter, elongation, melanogenesis and hair cycle stage were determined.
Fontana Masson staining was performed at the end of the culture period and photos taken of snap frozen sections. The photos were analysed (Image J, public domain, developed at the National Institutes of Health, USA) by measuring the density of two squares, consisting of 150×150 dots, placed over the darkest areas on both sides of the dermal papilla. For Fontana-Masson staining, fixed sections were treated in darkness for 40 minutes with a solution containing 10% silver nitrate (Merck & Co., Inc., Whitehouse Station, N.J., USA; CatNo 1.01512.0100), following by a development in solution containing 5% sodium thiosulphate (Merck & Co., Inc.; CatNo 1.06512.2500) for 1 minute and multiple washings in distilled water for 3 minutes. Counterstaining with 0.5% Neutralrot (Chroma Muenster, Germany, CatNo 2E038). Then dehydration in xylol and covering with Eukitt (O. Kindler GmbH, Freiburg, Germany; CatNo E115).
(§2) All data were analysed by two-tailed unpaired t-test (SPSS analysis software SPSS Inc., Chicago, USA). For determination of elongation, two outliers at top and bottom end of value range were eliminated; with the measurement of melanogenesis one outlier at both, top and bottom range, was eliminated. Results are given as mean value and standard error of measurement (SEM).
Micro-dissected anagen VI hair follicles were treated as above described. At the end of the culture period Fontana Masson staining was performed and photos were taken of the snap frozen sections. The pictures were analysed by measuring the darkness (brightness) of two squares, consisting of 150×150 dots, placed over the darkest areas on both sides of the dermal papilla (dark=small index number, light=high index number). The shading of the different groups was compared to each other and the results were analysed using Student's t-test. The results are shown below in Table 5 and FIG. 7.

For another assay, the system named is human hair follicles. Nature of the assay: Hair cycle staging of cultured hair follicles (assays #1, #2, #3). Particulars: after 9 days of treatment, both tested individuals, all concentrations. The procedure:
Photodocuments from the Fontana Masson staining were used for hair follicle staging according to previously well-defined morphological criteria (Stenn K S et al, Controls of Hair Follicle Cycling; Physiol Rev 2001, 81:449-494, Müller-Röver S et al, A Comprehensive Guide for the Accurate Classification of Murine Hair Follicles in Distinct Hair Cycle Stages; J Invest Dermatol 2001, 117:3-15). The percentage of hair follicles in anagen, early, mid and late catagen was determined.
Photodocuments from the Fontana Masson staining were used for hair follicle staging according to previously well-defined morphological criteria (Stenn K S et al, Controls of Hair Follicle Cycling; Physiol Rev 2001, 81:449-494, Müller-Röver S et al, A Comprehensive Guide for the Accurate Classification of Murine Hair Follicles in Distinct Hair Cycle Stages; J Invest Dermatol 2001, 117:3-15). The percentage of hair follicles in anagen, early, mid and late catagen was determined in the different assays.

For assay [2], the system named is human anagen VI hair follicles. The assay is described as follows: Hair shaft elongation of organ-cultured hair follicles, assay #3 (culture HF 446). Particulars: for Rate of hair growth compared with control (in words): p<0.05. The procedure: (§3) Human anagen VI hair follicles were isolated from scalp skin obtained from three different individuals undergoing routine face-lift surgery. All experiments were performed according to Helsinki guidelines.
(§4) Hair follicles were isolated as described (Philpott MP et al, Human hair growth in vitro; J Cell Science 1990, 97(Pt 3):463-71). Isolated HFs were maintained in supplemented, serum-free Williams E medium (Biochrom, Cambridge, UK) supplemented with 2 mMol/L L-glutamine (Invitrogen, Paisley, UK), 10 ng/mL hydrocortisone (Sigma-Aldrich, Taufkirchen, Germany), 10 μg/mL insulin (Sigma-Aldrich), and 1% antibiotic/antimycotic mixture (Gibco, Karlsruhe, Germany). Hair follicles were placed in a 24-well plate with 500 μL medium (day 0) and incubated in a CO2-incubator (5% CO2, 37° C.) over night without any treatment. The next day (day 1) medium was exchanged and test substance was added to each well (5 μL of stock solution was added to 495 μL culture medium). The medium or medium with test substance was changed every 48 hours.
(§5) Assay #3 Culture HF 446: Eight hair follicle cultures (3 follicles/well) were treated with various concentration of test substance as described for 2 days, followed by snap freezing and sectioning of two wells. Six wells were treated up to 9 days, then snap frozen and sectioned. The distribution of test substances and concentrations were as indicted in FIG. 3. The parameter measured after two days was proliferation/apoptosis, and the parameters measured after 9 days were elongation, proportion of cells in proliferation/apoptosis, and hair cycle stage
(§6) Hair shaft length measurements were performed every second day on individual hair follicles using a binocular microscope with an eyepiece measuring reticule. The length of the follicle was defined as the distance between the base of the bulb and the cut end of the hair fibre (Philpott MP et al, Human hair growth in vitro; J Cell Science 1990, 97(Pt 3):463-71).
as §2

Assay [3] concerns human anagen VI hair follicles. Nature of the assay: Hair shaft elongation of organ-cultured hair follicles, assay #1 (culture HF 429). On the procedure:
as §3, §4, §1, §6, §2

Assay [4] concerns human anagen hair follicles. Nature of the assay: Ki67/TUNEL staining, percentage of proliferating cells, assay #3. Particulars: for Mean percentage of Ki67-positive cells: after 9 days of culture, Anagen only; for Percentage of proliferating cells compared to the control (in words): nine days, p<0.05. The procedure:
as §5
After nine days, Ki67/TUNEL staining was performed and photos taken.
Proliferating and resting cells as well as cells undergoing apoptosis were counted separately proximal Auber's line. Results are expressed as percentages. For Ki-67/TUNEL staining, fixed sections were incubated for 60 minutes in a solution comprising 30% TdT-enzyme (Chemicon International, Inc., Temecula, Calif., USA; CatNo S1707). 2 mL stop buffer (Chemicon International, Inc.; CatNo S7110), diluted in 68 mL distilled water, was added for 10 minutes to stop the reaction. This was followed by a pre-incubation for 20 minutes with 10% goat serum (Dako Cytomation, CatNo 50114121) and incubation with mouse-anti human Ki-67 antigen (Chemicon International, Inc., CatNo S7110) 1:20 in PBS with 2% goat serum. The fixed section was then washed in PBS, treated with anti-digoxigenin antibody (Chemicon International, Inc., CatNo S7110) (59DI Antibody solution and 5601 Stop solution, 30 minutes) and goat anti-mouse-IgG-rhodamine red (Jackson Immuno Research, Suffolk, UK; CatNo 115-295-062), 1:200 in PBS with 2% goat serum. After washes with PBS, counterstaining with DAPI™ ([…]) (Roche, Basel, Switzerland; CatNo 236276) and further washes with PBS and mounting using Fluoromount (Southern Biotech, Birmingham, Ala., USA; CatNo 0100-01).
After nine days, Ki67/TUNEL staining was performed and photos were taken. In anagen hair follicles, proliferating cells and cells undergoing apoptosis were counted separately proximal Auber's line. Results are expressed as percentages. […] The results are summarized in Table 6 and FIG. 9 showing the mean percentage of Ki6 7 positive cells with SEM

Take “GH: GH, pituitary hormone that stimulates the secretion of thymulin”: the “Staining for thymulin compared with the control group (in words)” value with thymulin was “stained more intensively for thymulin”.
As to “Thymosin alpha-1 (SDAAVDTSSEITTKDLKEKKEVVEEAEN; ends and bridges not checked; UniProt P06454 2-29, looked up) [TA1, 28aa thymic peptide which modulates lymphocyte differentiation]”, the “Mean relative darkening of the groups (measured by image J), Mean” value in assay [1] (100 ng/mL) was determined as 81.01; in assay [1] (1000 ng/mL), 71.61. In assay [1] (quantitative Masson-Fontana histochemistry), the “Influence on HF melanogenesis (in words)” value is “did not influence HF melanogenesis”. The “Hair follicles in anagen compared with control (in words)” value with human hair follicles is “more hair follicles in anagen”. Moreover, the “Mean elongation in % compared to day 0” value was determined as 0% in assay [2] (100 ng/mL, Day 0); 6.25% in assay [2] (100 ng/mL, Day 1); 45.55% in assay [2] (100 ng/mL, Day 3); 49.52% in assay [2] (100 ng/mL, Day 5); 61.94% in assay [2] (100 ng/mL, Day 7); 69.90% in assay [2] (100 ng/mL, Day 9). Moreover, the “Mean elongation in % compared to day 0” value in assay [2] (1000 ng/mL, Day 0) is 0%; in assay [2] (1000 ng/mL, Day 1), 4.00%; in assay [2] (1000 ng/mL, Day 3), 37.95%; in assay [2] (1000 ng/mL, Day 5) it was 51.77%; in assay [2] (1000 ng/mL, Day 7), 68.36%; in assay [2] (1000 ng/mL, Day 9), 73.33%. Also, the “Rate of hair growth compared with control (in words)” value in assay [2] (100 ng/mL) and in assay [2] (1000 ng/mL) was “significantly lowered rate of hair growth” throughout. For the same substance, the “Mean elongation in percent compared to day 0” value in assay [3] (100 ng/mL, Day 0) is on record as 0.00%; in assay [3] (100 ng/mL, Day 1) it was 16.71%; in assay [3] (100 ng/mL, Day 3), 34.54%; in assay [3] (100 ng/mL, Day 5) it was 51.14%; in assay [3] (100 ng/mL, Day 7), 70.11%; in assay [3] (100 ng/mL, Day 9), 82.55%. Further, the “Mean elongation in percent compared to day 0” value in assay [3] (1000 ng/mL, Day 0) turned out to be 0.00%; in assay [3] (1000 ng/mL, Day 1), 15.41%; in assay [3] (1000 ng/mL, Day 3), 34.74%; in assay [3] (1000 ng/mL, Day 5), 50.66%; in assay [3] (1000 ng/mL, Day 7), 66.20%; in assay [3] (1000 ng/mL, Day 9) it was 75.26%. Further, the “Mean percentage of Ki67-positive cells” value in assay [4] (100 ng/mL) is on record as 25.15 percentage; in assay [4] (1000 ng/mL), 28.05 percentage. Besides, the “Percentage of proliferating cells compared to the control (in words)” value in assay [4] (100 ng/mL) and in assay [4] (1000 ng/mL) was “less percentage of cells are proliferating” each time.
